Paper PMC7200681, “The calcitonin-like system is an ancient regulatory system of biomineralization” (Scientific Reports, 2020)
Each block holds one molecule with its values, some of them ahead of it.

Legend:
[1] = system: mussel CALCR-like (CALCRIa, CALCRIc, CALCRIIa, CALCRIIb and CALCRIIc); experiment: cAMP assay in HEK 293 cells stably expressing the mussel receptors; format: cell-based; settings: 10 µM peptide, 30 min at 37 °C, 1 mM IBMX; % of Forskolin (10uM) response; single experiment in triplicate (Supplementary Figure 7A)
Protocol: Mammalian cell cultures and transfections followed the methodology described by[89],[90]. Mammalian HEK293 cells (ECACC, UK) were used and they were maintained in complete Dulbecco’s modified Eagle’s medium (DMEM, 4.5 g/l glucose, 110 mg/l sodium pyruvate and L-glutamine, SIGMA-ALDRICH, Spain) supplemented with 10% sterile foetal bovine serum (FBS), 0.1% penicillin: streptomycin antibiotic mix (10,000 U:10 mg/ml, Sigma) and 250 μg /ml sterile filtered 1:100 amphotericin B solution (SIGMA-ALDRICH) in a humid 5% CO2 incubator (HERAEUS, Portugal) at 37 °C. […] Cell recovery was monitored daily and the medium was changed every two days until no cell death was observed. […]
(§1) HEK293 cells stably expressing five mussel receptors (CALCRIa, CALCRIc, CALCRIIa, CALCRIIb and CALCRIIc) were stimulated with the two mussel peptides and the vertebrate (human and salmon) calcitonins. Receptor activation was assessed in vitro by measuring two intracellular signalling pathways: a) production of cAMP and b) mobilization of calcium (Ca^2+). The cellular response was initially assessed using 10 μM of each peptide. […]
The amount of cAMP produced was determined using a competitive immunoassay with a cryptate labelled anti-cAMP antibody (CISBIO, France) and followed the methodology describe by[89],[90]. […]

[2] = system: mussel CALCRIIc; experiment: Calcium mobilization assay (apoaequorin bioluminescence), dose-response, HEK 293 cells expressing mussel CALCRIIc; format: cell-based, Mytilus coruscus; settings: HEK 293/apoaequorin, 1 μM to 0.01 nM
Text: The complete sequence of the Mediterranean mussel CALCRIa was amplified using specific primers (Table 1) from cDNA of a tissue mixture (mantle, adductor muscle, gills, gonads) using a proofreading DNA polymerase (iProof BIORAD, Portugal) and cloned into the pGEMT-easy vector (PROMEGA, Spain). The Mediterranean mussel CALCRIIa transcript that was found in the mantle transcriptome was incomplete and lacked the N-terminus (by comparisons with the hard-shelled mussel homologue) and so the remaining sequence (from 1–393 bp) was deduced from the hard-shelled mussel homologue receptor and the receptor was synthesised and supplied by GENESCRIPT (USA). The complete transcripts for mussel CALCRIc, CALCRIIb and CALCRIIc were only found in the hard-shelled mussel mantle transcriptome and homologues were only found in the Mediterranean mussel genome as they were absent from the species mantle transcriptome and so they were also synthesised and supplied by GENESCRIPT (USA) using the hard-shelled mussel receptor sequences as template. […]
Mammalian cell cultures and transfections followed the methodology described by[89],[90]. […] Cell recovery was monitored daily and the medium was changed every two days until no cell death was observed. […]
as §1
Stable cell lines expressing the mussel receptors were transiently co-transfected with the mitochondrial targeted apo-aequorin protein cloned in pcDNA3.1. Two days after transfection cells were washed, counted and resuspended in 1 ml of DMEM /F12 Ham (without phenol red)/0.1% BSA supplemented with 2 µM coelenterazine (SIGMA-ALDRICH). […]

[3] = system: mussel CALCRIIa; experiment: Calcium mobilization assay (apoaequorin bioluminescence), dose-response, HEK 293 cells expressing mussel CALCRIIa; format: cell-based, Mytilus galloprovincialis; settings: for EC50: HEK 293 cells stably expressing receptor, co-transfected with apoaequorin, peptide 1 μM to 0.01 nM, three independent assays in duplicate, read-out: EC50, activation of mussel CALCRIIa (intracellular calcium mobilization); for Activation of mussel CALCRIIa in dose-response analysis (in words): calcium mobilization, HEK 293/apoaequorin, 1 μM to 0.01 nM
Text: (§2) The complete sequence of the Mediterranean mussel CALCRIa was amplified using specific primers (Table 1) from cDNA of a tissue mixture (mantle, adductor muscle, gills, gonads) using a proofreading DNA polymerase (iProof BIORAD, Portugal) and cloned into the pGEMT-easy vector (PROMEGA, Spain). The Mediterranean mussel CALCRIIa transcript that was found in the mantle transcriptome was incomplete and lacked the N-terminus (by comparisons with the hard-shelled mussel homologue) and so the remaining sequence (from 1–393 bp) was deduced from the hard-shelled mussel homologue receptor and the receptor was synthesised and supplied by GENESCRIPT (USA). The complete transcripts for mussel CALCRIc, CALCRIIb and CALCRIIc were only found in the hard-shelled mussel mantle transcriptome and homologues were only found in the Mediterranean mussel genome as they were absent from the species mantle transcriptome and so they were also synthesised and supplied by GENESCRIPT (USA) using the hard-shelled mussel receptor sequences as template. The mussel CALCRIb transcript was incomplete and lacked both N and C-terminal regions and it was not possible to obtain the complete transcript either by searching both mussels mantle transcriptomes or the Mediterranean mussel genome and so it was not produced. All synthetized receptors were provided in the pUC57 cloning vector by the company and receptor codon usage was optimized to favour a high level of expression in mammalian cells.
(§3) Mammalian cell cultures and transfections followed the methodology described by[89],[90]. Mammalian HEK293 cells (ECACC, UK) were used and they were maintained in complete Dulbecco’s modified Eagle’s medium (DMEM, 4.5 g/l glucose, 110 mg/l sodium pyruvate and L-glutamine, SIGMA-ALDRICH, Spain) supplemented with 10% sterile foetal bovine serum (FBS), 0.1% penicillin: streptomycin antibiotic mix (10,000 U:10 mg/ml, Sigma) and 250 μg /ml sterile filtered 1:100 amphotericin B solution (SIGMA-ALDRICH) in a humid 5% CO2 incubator (HERAEUS, Portugal) at 37 °C. On the day prior to transfection, 2–3 × 10^5 HEK293 cells were seeded on 6 well plates (SARSTEDT, Portugal) and transfected with Fugene HD transfection reagent (2 DNA: 4 Fugene ratio, PROMEGA) following the manufacturer’s protocol. Seventy-two hours after transfection, 800 μg/ml of the antibiotic Geneticin (SIGMA-ALDRICH) was added to the medium to select and isolate stable receptor cell lines. Cell recovery was monitored daily and the medium was changed every two days until no cell death was observed. […]
as §1
(§4) Stable cell lines expressing the mussel receptors were transiently co-transfected with the mitochondrial targeted apo-aequorin protein cloned in pcDNA3.1. Two days after transfection cells were washed, counted and resuspended in 1 ml of DMEM /F12 Ham (without phenol red)/0.1% BSA supplemented with 2 µM coelenterazine (SIGMA-ALDRICH). […] The injector system of the Biotek Synergy 4 microplate reader (USA) was used to inject 50 µl of the cell suspensions into wells containing 50 μl of the diluted peptide in DMEM / F12 Ham / 0.1% BSA. […]

[4] = system: mussel CALCRIa; experiment: Calcium mobilization assay (apoaequorin bioluminescence), dose-response, HEK 293 cells expressing mussel CALCRIa; format: cell-based, Mytilus galloprovincialis; settings: for EC50: HEK 293 cells stably expressing receptor, co-transfected with apoaequorin, peptide 1 μM to 0.01 nM, three independent assays in duplicate, read-out: EC50, activation of mussel CALCRIa (intracellular calcium mobilization); for Activation of mussel CALCRIa in dose-response analysis (in words): calcium mobilization, HEK 293/apoaequorin, 1 μM to 0.01 nM
Text: as §2, §3, §1, §4

[5] = system: mussel mantle edge; experiment: Ex-vivo incubation of mantle edge fragments, calcium quantification by MP-AES; parameters: species or system Mytilus galloprovincialis; settings: Verapamil 200 µM, 4 hours; data not shown
Protocol: Figure 7 Effect of the mussel calcitonin-like peptide on (A) calcium (ppm) concentration in the mantle edge and (B) calcium uptake by mantle cells of the Mediterranean mussel. (A) The quantity of calcium (ppm) present in the mantle edge after mussel CALCIIa peptide incubation was measured using a Microwave Plasma-Atomic Emission Spectrometer (MP-AES, Agilent) at 393.366 nm. A standard curve for calcium was performed before analysing the samples. In vitro mantle assays with CALCIIa peptide and with ouabain and control (culture medium and mantle) were repeated on at least 3 independent occasions. For each assay at least ten replicates were performed and the mantle edge distal to the umbo was used (one mantle fragment per replica). Prism GraphPad v5 software was used to assess the significance of differences between the groups using a One-way Anova and Tukey’s multiple comparison test. […] C - control (no peptide or ouabain); P - peptide (10 μM); O - ouabain (2 mM), OP - ouabain (2 mM) and peptide (10 μM); PreOP - pre -stimulation for 1 hour with the peptide followed by 4 hours incubation with OP. (B) Digital photographs of the mussel mantle cells in the presence (CALCIIa, 10 μM) or absence (control) of the mussel CALCIIa peptide. Calcium ions were stained with 50 mM of Calcein (green) and cell nuclei (blue) with DAPI (Acros Organics). An increase in cellular fluorescence represents an increase in calcium uptake. Fluorescence of the CALCIIa peptide stimulated cells was 1.9 times higher than the control. The average mantle cell size was 3–4 μm and fluorescent images were taken using a Leica DM IL microscope coupled to a Visicam HDMI 6 digital camera and photographs were analysed using ImageJ software (v. 1.52a) to calculate the fluorescence intensity and for image overlay. The scale bar is indicated.
The posterior mantle edge region of the Mediterranean mussel was collected and washed in culture medium. The composition of the culture medium was as described in[91] […]

EC50 [3]: 0.014 µM | EC50 [4]: 0.005 µM
SMILES: CC(C)C[C@H](NC(=O)[C@H](CCCCN)NC(=O)CNC(=O)[C@H](CC(C)C)NC(=O)[C@@H](NC(=O)[C@@H]1CSSC[C@H](N)C(=O)N[C@@H](CO)C(=O)N[C@@H](CC(N)=O)C(=O)N[C@@H](CC(C)C)C(=O)N[C@@H](CO)C(=O)N[C@@H]([C@@H](C)O)C(=O)N1)C(C)C)C(=O)N[C@@H](CO)C(=O)N[C@@H](CCC(N)=O)C(=O)N[C@@H](CCC(=O)O)C(=O)N[C@@H](CC(C)C)C(=O)N[C@@H](Cc1c[nH]cn1)C(=O)N[C@@H](CCCCN)C(=O)N[C@@H](CC(C)C)C(=O)N[C@@H](CCC(N)=O)C(=O)N[C@H](C(=O)N[C@@H](Cc1ccc(O)cc1)C(=O)N1CCC[C@H]1C(=O)N[C@@H](CCCNC(=N)N)C(=O)N[C@H](C(=O)N[C@@H](CC(N)=O)C(=O)N[C@H](C(=O)NCC(=O)N[C@@H](CO)C(=O)NCC(=O)N[C@H](C(=O)N1CCC[C@H]1C(N)=O)[C@@H](C)O)[C@@H](C)O)[C@@H](C)O)[C@@H](C)O [salmon calcitonin, calcitonin]
Stimulation of all mussel receptors via the cAMP pathway (in words) [1]: stimulated | Activation of mussel CALCRIIc in dose-response analysis (in words) [2]: but not CALCRIIc | Activation of mussel CALCRIIa in dose-response analysis (in words) [3]: activated | Activation of mussel CALCRIa in dose-response analysis (in words) [4]: activated

SMILES: COc1ccc(CCN(C)CCCC(C#N)(c2ccc(OC)c(OC)c2)C(C)C)cc1OC (stereo not shown) [Verapamil]
Calcium concentration of mantle fragments relative to the control (in words) [5]: did not change

SMILES: CC[C@H](C)[C@H](NC(=O)[C@H](C)NC(=O)[C@@H](NC(=O)[C@H](CCC(N)=O)NC(=O)[C@@H]1CCCN1C(=O)[C@H](Cc1ccccc1)NC(=O)[C@@H](NC(=O)[C@H](Cc1c[nH]cn1)NC(=O)[C@H](Cc1ccccc1)NC(=O)[C@H](CCCCN)NC(=O)[C@H](CC(N)=O)NC(=O)[C@H](Cc1ccccc1)NC(=O)[C@H](CC(=O)O)NC(=O)[C@H](CCC(N)=O)NC(=O)[C@@H](NC(=O)[C@H](Cc1ccc(O)cc1)NC(=O)[C@@H](NC(=O)CNC(=O)[C@H](CC(C)C)NC(=O)[C@H](CCSC)NC(=O)[C@@H]1CSSC[C@H](N)C(=O)NCC(=O)N[C@@H](CC(N)=O)C(=O)N[C@@H](CC(C)C)C(=O)N[C@@H](CO)C(=O)N[C@@H]([C@@H](C)O)C(=O)N1)[C@@H](C)O)[C@@H](C)O)[C@@H](C)O)[C@@H](C)O)C(=O)NCC(=O)N[C@H](C(=O)NCC(=O)N[C@@H](C)C(=O)N1CCC[C@H]1C(N)=O)C(C)C [human calcitonin, calcitonin]
Stimulation of all mussel receptors via the cAMP pathway (in words) [1]: stimulated | Activation of mussel CALCRIIc in dose-response analysis (in words) [2]: but not CALCRIIc | EC50 [3]: 0.5 µM | Activation of mussel CALCRIIa in dose-response analysis (in words) [3]: activated | EC50 [4]: 0.0095 µM | Activation of mussel CALCRIa in dose-response analysis (in words) [4]: activated
